Where “and” joins values, the source holds several entries; their conditions need not be identical. Equal values may be shown once.
Assays:
[1] = tested on: luciferase expression; assay: In-vivo delivery of mRNA encoding luciferase using LNPs (IVIS of organs); parameters: species or system Mice; conditions: for bio-distribution of LNPs (luciferase expression by IVIS): mLUC-LNPs IV 0.5 mg/kg, 7 hr post administration, lung, liver, spleen, kidney; for luciferase activity of LNPs with DOPE as co-lipid compared to DSPC containing LNPs: mRNA-LNPs in mice; for bio-distribution on increasing ionizable lipid mole ratio (40% vs 30%): mRNA-LNPs IV
[2] = tested on: CD11c positive splenic dendritic cells; assay: mCRE-LNPs in Ai9 mice, FACS for tdTomato expression; format: in vivo; conditions: mCRE-LNPs IV 0.5 mg/kg, 72 hr post administration
Procedure: (§1) Ai9 mice that express robust tdTomato fluorescence following cre-mediated recombination were injected intravenously with the various mCRE-LNPs at 0.5 mg/kg dose. Mice were sacrificed 72 hr post administration and peritoneal macrophages and spleenocytes were isolated and analyzed by FACS for tdTomato expression (FIGS. 13 and 14).

[3] = tested on: peritoneal macrophages; assay: as above; format: in vivo; conditions: mCRE-LNPs IV 0.5 mg/kg, 72 hr post administration
Procedure: as §1

[4] = Physico-chemical characterization of LNPs made of different ionizable lipids (DLS, zeta potential); format: physicochemical
Procedure: Various LNPs comprising different ionizable lipid were prepared by using microfluidic micro mixture (Precision NanoSystems, Vancouver, BC) device. Briefly, one volume of lipid mixtures (ionizable lipid, DSPC, Cholesterol and DMG-PEG at 30:18:49.5:2.5 mole ratios) in ethanol and three volumes of mRNA containing acetate buffer solutions were mixed through the micromixer at a combined flow rate of 12 mL/min. The resultant mixture was dialyzed against PBS (pH 7.4) for 16 hours to remove ethanol.
The prepared LNPs comprising different ionizable lipids were characterized using transmission electron microscopy (TEM) analysis (FIGS. 10A-10G), dynamic light scattering (DLS) and zeta potential measurements. Table 1 represents the measured hydrodynamic diameter (Z-ave; d.nm), polydispersity index (PDI) and zeta potential (mV) of various LNPs. The resultant LNPs were spherical and uniformly distributed with a hydrodynamic diameter size of ˜50-260 nm, depending on the ionizable lipid used. Additionally, LNP surface potentials were negative.
In addition, DSL1-3 LNPs comprising different amounts of PEG (1.5 mol % or 2.5 mol %) were compared for bio-distribution. Mice treated and sacrificed; organs prepared for luciferase expression analysis as detailed above. […] Next, as shown in FIGS. 11M-11P, mRNA-LNPs composed of DSL1-4, 1-5, 2-2 or 2-50 lipids were compared to DSPC or DOPE as co-lipids. […] Tables 2-5 detail the physio-chemical properties of LNPs made of either DOPE or DSPC (the measured hydrodynamic diameter (Z-ave; d.nm), polydispersity index (PDI)).

[5] = tested on: mice; assay: In vivo safety analysis of mRNA-LNPs (serum liver enzymes); conditions: mRNA-LNPs IV; serum after 2 hr and 24 hr; compared to untreated mice
Procedure: After 2 hr and 24 hr blood was collected and serum samples were analyzed for levels of the liver enzymes alkaline phosphatase (Alk Phos), serum glutamic-oxaloacetic transaminase (SGOT) or serum glutamic pyruvic transaminase (SGPT).
Safety is an important limitation for clinical development of LNPs. Therefore, mRNA-LNPs system made of DSL2-50 and DSL1-3 lipids were tested and evaluated for the toxicity in mice.

[6] = tested on: SARS-CoV-2; conditions: IM day 0 and booster day 21, serum 3 weeks after booster; BALB/c and C57BL6 mice
Procedure: To evaluate the efficiency of our LNP system for vaccine delivery, mRNA against human Fc conjugated RBD (RBD-hFc mRNA) was chosen. LNPs encapsulated RBD-mRNA administered IM in to BALB/c mice (FIG. 19) and C57BL6 mice (FIG. 20) on day ‘0’ and a booster dose on day ‘21’. Serum was collected on day ‘21’ (pre boost) and 3 weeks after the booster dose (post boost) and analyzed for humoral response. […] The cellular response (SARS-CoV-2 specific T-cell response) was measured by ELISPOT assay for IFN-γ response.

[7] = Stability of mRNA-LNPs stored at 2-8° C. (size, PDI); format: physicochemical
[8] = tested on: luciferase expression; assay: Luciferase expression in mouse organs after storage of mRNA-LNPs (IVIS); format: in vivo, mice; conditions: mLuc LNPs stored 210 days at 2-8° C.
[9] = tested on: Luciferase and mCherry expression; assay: Delivery of two types of mRNA encapsulated in a single LNP (IVIS of livers); format: in vivo; conditions: mice livers; compared to SM102-LNPs
[10] = tested on: tdTomato expression; assay: Biodistribution of DSL1-2 LNPs compared to Dlin-MC3-DMA LNPs (IVIS of spleen and liver); format: in vivo, Ai9 mice; conditions: mCRE-LNPs IV 0.5 mg/kg, 72 hr post administration
Procedure: Ai9 mice that express robust tdTomato fluorescence following cre-mediated recombination were injected intravenously with either Dlin-MC3-DMA or DSL1-2 mCRE-LNPs at 0.5 mg/kg dose. Mice were sacrificed 72 hr post administration followed by spleen and liver isolation and analyzed by IVIS for tdTomato expression.

[11] = mRNA LNPs: ionizable lipid, DSPC, Cholesterol, DMG-PEG 30:18:49.5:2.5 mole ratio

| SMILES | bio-distribution of LNPs (luciferase expression by IVIS) [1] | PDI (polydispersity index) [4, 11] | Z-ave (hydrodynamic diameter) [4, 11] [nm·days] | Zeta (zeta potential) [4, 11] [mV] | further results |
| --- | --- | --- | --- | --- | --- |
| CCCCC/C=C\C/C=C\CCCCCCCCN(CCO)CCCCCCCCCCOC(=O)CCCCCCCCCN(CCO)CCCCCCCC/C=C\C/C=C\CCCCC [DSL1-1] | distributed to both liver and spleen | 0.23 | 187.3 | −6.37 | uptake by CD11c positive splenic dendritic cells (tdTomato expression) [2]: ~3%; peritoneal macrophages expressing tdTomato [3]: ~60% |
| CCCCC/C=C\C/C=C\CCCCCCCCN(CCO)CCCCCCCCCCOC(=O)CCCCCCCCCN(CCO)CCCCCCCCCCCC [DSL1-2] |  | 0.17 | 197.2 | −7.52 | uptake by CD11c positive splenic dendritic cells (tdTomato expression) [2]: ~12%; peritoneal macrophages expressing tdTomato [3]: about 90% |
| CCCCC/C=C\C/C=C\CCCCCCCCN(CCO)CCCCCCCCCCCOC(=O)CCCCCCCCCN(O)CCCCCCCCCCCC [DSL1-3] | preferentially taken up by spleen | 0.17 | 164.8 | −3.90 | LNP distribution and expression, 1.5 mol % vs 2.5 mol % PEG ([1]; mLUC-LNPs IV, two formulations compared): no significant different observed; toxicity (levels of liver enzymes Alk Phos, SGOT, SGPT) [5]: not toxic; uptake by CD11c positive splenic dendritic cells (tdTomato expression) [2]: ~18%; peritoneal macrophages expressing tdTomato [3]: ~20% |
| CCCCCCCCCCCCN(CCO)CCCCCCCCCCOC(=O)CCCCCCCCCN(CCO)CCCCCCCCCCCC [DSL1-4] | preferentially taken up by spleen | 0.13 | 188.7 | −1.43 | luciferase activity of LNPs with DOPE as co-lipid compared to DSPC containing LNPs ([1]; IVIS): loses its luciferase activity; PDI ([4]; LNPs with DOPE as co-lipid): 0.1; Z-ave (hydrodynamic diameter) ([4]; LNPs with DOPE as co-lipid): 92.3 nm·days; PDI ([4]; LNPs with DSPC as co-lipid): 0.15; Z-ave (hydrodynamic diameter) ([4]; LNPs with DSPC as co-lipid): 190.9 nm·days |
| CCCCCCCCCCCCN(CCO)CCCCCCCCCC(=O)OCCOC(=O)CCCCCCCCCN(CCO)CCCCCCCCCCCC [DSL1-5] | preferentially taken up by spleen |  |  |  | bio-distribution on increasing ionizable lipid mole ratio (40% vs 30%) [1]: altering the bio-distribution from the spleen to the liver |
| CCCCC/C=C\C/C=C\CCCCCCCCN(CCO)CCCCCCCCCC(=O)ON(CCCCCCCCCCCC)CCCCCCCCCCCC [DSL2-1] | mostly taken-up by the liver | 0.24 | 49.2 | −6.97 |  |
| CCCCCCCCCCCCN(CCO)CCCCCCCCCC(=O)ON(CCCCCCCCCCCC)CCCCCCCCCCCC [DSL2-2] | mostly taken-up by the liver | 0.23 | 50.8 | −5.31 | luciferase activity of LNPs with DOPE as co-lipid compared to DSPC containing LNPs ([1]; IVIS): enhanced luciferase activity observed in the liver; Z-ave (hydrodynamic diameter) ([4]; LNPs with DOPE as co-lipid): 72.5 nm·days and 88.5 nm·days; Z-ave (hydrodynamic diameter) ([4]; LNPs with DSPC as co-lipid): 50.8 nm·days and 80.3 nm·days |
| CCCCCCN(CCCCCC)OC(=O)CCCCCCCCCN(CCO)CCCCCCCCCC(=O)ON(CCCCCC)CCCCCC [DSL2-49] |  | 0.07 | 63.9 | −5.65 |  |
| CCCCCCN(CCCCCC)CCOC(=O)CCCCCCCCCN(CCO)CCCCCCCCCC(=O)OCCN(CCCCCC)CCCCCC [DSL2-50] |  | 0.04 | 80.3 | −2.68 | post boost antibody response against SARS-CoV-2 [6]: robust antibody response; time over which LNPs are stable ([7]; mCherry LNPs stored at 2-8° C.): ≥ 3 months; size of the LNPs compared to freshly prepared LNPs ([7]; mCherry LNPs, after 3 months at 2-8° C.): slightly increased; time over which LNPs are stable ([7]; mLuc LNPs stored at 2-8° C.): ≥ 7 months; size and distribution of the LNPs compared to freshly prepared LNPs ([7]; mLuc LNPs, 210 days (7 months) at 2-8° C.): did not change; luciferase activity in the liver after storage [8]: retain its luciferase activity in the liver; bio-distribution on increasing ionizable lipid mole ratio (40% vs 30%) [1]: no significant changes in bio-distribution; luciferase activity of LNPs with DOPE as co-lipid compared to DSPC containing LNPs ([1]; IVIS): enhanced luciferase activity observed in the liver; LNP bio-distribution, intramuscular (IM) administration ([1]; mRNA-LNPs, IVIS): also reaching the liver apart from the injection site of the muscle; LNP bio-distribution, intravenous (IV) administration ([1]; mRNA-LNPs, IVIS): distributing to the liver; toxicity (levels of liver enzymes Alk Phos, SGOT, SGPT) [5]: not toxic; amount of Luciferase and mCherry expression [9]: high |
| CCCCC/C=C\C/C=C\CCCCCCCCN(CCO)CCCCCCCCCCOC(=O)CCCCCCCCCN(CCO)CCCCCCCCCC(=O)OCCCCCCCCCCN(CCO)CCCCCCCC/C=C\C/C=C\CCCCC [DSL3c-1] | distributed to both liver and spleen | 0.45 | 261.9 | −2.68 |  |
| CCCCCCCCCCCCN(CCCCCCCCCCCC)CC(=O)ON(CCCCCCCCCCCC)CCCCCCCCCCCC [DSL4-2] | no effect | 0.64 | 72.4 | −5.00 |  |
| CCCCC/C=C\C/C=C\CCCCCCCCC(CCCCCCCC/C=C\C/C=C\CCCCC)OC(=O)CCCN(C)C [Dlin-MC3-DMA] |  |  |  |  | organ of accumulation (tdTomato expression, IVIS) [10]: accumulated in the liver |

Reference: patent publication US20240166593A1, “LIPIDS SUITABLE FOR NUCLEIC ACID DELIVERY” (RAMOT AT TEL-AVIV UNIVERSITY LTD., priority 2021, published 2024)
